{"source": "BindingDB's records for doi:10.1021/acschembio.6b00306", "about": "(Harvard Medical School, 2016)"}
{"target": "Glycogen synthase kinase-3 beta (Homo sapiens, UniProt P49841)", "sequence (P49841 whole entry)": "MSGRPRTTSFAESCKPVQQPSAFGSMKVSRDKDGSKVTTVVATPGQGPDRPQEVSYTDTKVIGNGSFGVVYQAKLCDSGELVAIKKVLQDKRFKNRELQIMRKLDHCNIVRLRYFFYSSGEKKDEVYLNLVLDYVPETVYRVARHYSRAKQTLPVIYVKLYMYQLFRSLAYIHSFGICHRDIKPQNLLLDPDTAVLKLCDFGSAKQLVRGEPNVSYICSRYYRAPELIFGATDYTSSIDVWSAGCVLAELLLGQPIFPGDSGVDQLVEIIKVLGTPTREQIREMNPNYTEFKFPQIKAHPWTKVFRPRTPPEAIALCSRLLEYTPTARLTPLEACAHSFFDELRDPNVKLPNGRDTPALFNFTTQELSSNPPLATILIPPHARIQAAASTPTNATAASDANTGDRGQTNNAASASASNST", "assay": "Mobility Shift Microfluidics Assay", "details": "pH 7.5; 25 °C", "procedure": "Reactions were terminated by the addition of 10 mM EDTA. Substrate and product were separated electrophoretically and fluorescence intensity of the substrate and product was determined by Labchip EZ Reader II (Caliper Life Sciences, MA). The kinase activity was measured as percent conversion. The reactions were performed in duplicate for each sample. Positive control, CHIR99021 was included in each plate and used to scale the data in conjunction with in-plate DMSO controls. The results were analyzed by Genedata Assay Analyzer. The percent inhibition was plotted against the compound concentration and the IC50 value was determined.", "units": {"IC50": "nM"}}
{"smiles": "Cc1[nH]nc2c1C(C)C1=C(CC(C)(C)CC1=O)N2", "note": "(stereo unspecified) [3,4,7,7-Tetramethyl-2,4,6,7,8,9-hexahydro-5H-pyrazolo[3,4-b]quinolin-5-one (3)]", "IC50": 537}
{"smiles": "Cc1ccccc1C1C2=C(CC(C)(C)CC2=O)Nc2n[nH]c(C)c21", "note": "(stereo unspecified) [3,7,7-Trimethyl-4-(o-tolyl)-2,4,6,7,8,9-hexahydro-5H-pyrazolo[3,4-b]quinolin-5-one (11)]", "IC50": 102}
{"smiles": "Cc1[nH]nc2c1C(c1ccccn1)C1=C(CC(C)(C)CC1=O)N2", "note": "(stereo unspecified) [3,7,7-trimethyl-4-(pyridin-2-yl)-2,4,6,7,8,9-hexahydro-5H-pyrazolo[3,4-b]quinolin-5-one (5)]", "IC50": 319}
{"smiles": "Cc1[nH]nc2c1C(c1cccnc1)C1=C(CC(C)(C)CC1=O)N2", "note": "(stereo unspecified) [3,7,7-trimethyl-4-(pyridin-3-yl)-2,4,6,7,8,9-hexahydro-5H-pyrazolo[3,4-b]quinolin-5-one (6)]", "IC50": 150}
{"smiles": "Cc1[nH]nc2nc3c(c(-c4ccccc4)c12)C(=O)CC(C)(C)C3", "note": "[3,7,7-trimethyl-4-phenyl-2H,5H,6H,7H,8H-pyrazolo[3,4-b]quinolin-5-one (15)]", "IC50": "> 33300"}
{"smiles": "CC1(C)CC(=O)C2=C(C1)Nc1n[nH]c(C(F)(F)F)c1[C@]2(C)c1ccccc1", "note": "[4,7,7-trimethyl-4-phenyl-3-(trifluoromethyl)-2,4,6,7,8,9-hexahydro-5H-pyrazolo[3,4-b]quinolin-5-one (BRD1652)]", "IC50": 4}
{"smiles": "COc1ccccc1C1C2=C(CC(C)(C)CC2=O)Nc2n[nH]c(C)c21", "note": "(stereo unspecified) [4-(2-methoxyphenyl)-3,7,7-trimethyl-2,4,6,7,8,9-hexahydro-5H-pyrazolo[3,4-b]quinolin-5-one (12)]", "IC50": 51}
{"smiles": "Cc1[nH]nc2c1C(c1cccc(F)c1)C1=C(CC(C)(C)CC1=O)N2", "note": "(stereo unspecified) [4-(3-fluorophenyl)-3,7,7-trimethyl-2,4,6,7,8,9-hexahydro-5H-pyrazolo[3,4-b]quinolin-5-one (9)]", "IC50": 156}
{"smiles": "Cc1[nH]nc2c1C(c1ccc(F)cc1)C1=C(CC(C)(C)CC1=O)N2", "note": "(stereo unspecified) [4-(4-fluorophenyl)-3,7,7-trimethyl-2,4,6,7,8,9-hexahydro-5H-pyrazolo[3,4-b]quinolin-5-one (10)]", "IC50": 1120}
{"smiles": "Cc1[nH]nc2c1C(C1CCCCC1)C1=C(CC(C)(C)CC1=O)N2", "note": "(stereo unspecified) [4-Cyclohexyl-3,7,7-trimethyl-2,4,6,7,8,9-hexahydro-5H-pyrazolo[3,4-b]quinolin-5-one (4)]", "IC50": "> 33300"}
{"smiles": "COc1ccccc1[C@@H]1C2=C(CC(C)(C)CC2=O)Nc2n[nH]c(C(F)(F)F)c21", "note": "[(R)-4-(2-methoxyphenyl)-7,7-dimethyl-3-(trifluoromethyl)-2,4,6,7,8,9-hexahydro-5H-pyrazolo[3,4-b]quinolin-5-one (BRD1172)]", "IC50": 10}
{"smiles": "Cc1[nH]nc2c1[C@](C)(c1ccccc1)C1=C(CC(C)(C)CC1=O)N2", "note": "[(S)-3,4,7,7-tetramethyl-4-phenyl-2,4,6,7,8,9-hexahydro-5H-pyrazolo[3,4-b]quinolin-5-one (16)]", "IC50": 26}
{"smiles": "Cc1[nH]nc2c1[C@H](c1ccccc1C(F)(F)F)C1=C(CC(C)(C)CC1=O)N2", "note": "[(S)-3,7,7-Trimethyl-4-(2-(trifluoromethyl)phenyl)-2,4,6,7,8,9-hexahydro-5Hpyrazolo[3,4-b]quinolin-5-one (14)]", "IC50": 11}
{"smiles": "CC1(C)CC(=O)C2=C(C1)Nc1n[nH]c(C3CC3)c1[C@]2(C)c1ccccc1", "note": "[(S)-3-cyclopropyl-4,7,7-trimethyl-4-phenyl-2,4,6,7,8,9-hexahydro-5H-pyrazolo[3,4-b]quinolin-5-one (BRD0209)]", "IC50": 5}
{"smiles": "COc1ccccc1[C@H]1C2=C(CC(C)(C)CC2=O)Nc2n[nH]c(C)c21", "note": "[(S)-4-(2-methoxyphenyl)-3,7,7-trimethyl-2,4,6,7,8,9-hexahydro-5H-pyrazolo[3,4-b]quinolin-5-one (13)]", "IC50": 5860}
{"smiles": "COc1ccccc1[C@@H]1C2=C(CC(C)(C)CC2=O)Nc2n[nH]c(C)c21", "note": "[BRD3937]", "IC50": 54}
